A short description of assay [1]: general mammalian cell viability loss – activator set, cherry-pick, cytotoxicity control for miR-122 modulator project, dose response (AID 720690).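 Also: HEK293T human cells scored for general mammalian cytotoxicity.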 It is filed as functional, cell-based.
A short description of assay [2]: cells. It is filed as functional, cell-based. The conditions noted are these: HEK-CNG.
Assay [3] has as its target T1, Galanin receptor type 3 (Homo sapiens, UniProt O60755).
T1 sequence (O60755 whole entry): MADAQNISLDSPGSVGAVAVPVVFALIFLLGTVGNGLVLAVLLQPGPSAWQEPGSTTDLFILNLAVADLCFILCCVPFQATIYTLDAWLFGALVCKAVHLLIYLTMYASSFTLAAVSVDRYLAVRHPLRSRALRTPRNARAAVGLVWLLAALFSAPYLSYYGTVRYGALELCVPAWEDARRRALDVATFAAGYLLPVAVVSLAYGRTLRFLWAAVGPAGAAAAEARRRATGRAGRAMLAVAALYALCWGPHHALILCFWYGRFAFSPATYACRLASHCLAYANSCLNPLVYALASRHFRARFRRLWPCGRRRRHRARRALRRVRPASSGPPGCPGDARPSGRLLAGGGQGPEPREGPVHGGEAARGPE
Description: Fluorescence-based cell-based primary high throughput dose response assay to identify antagonists of the Galanin Receptor 3 (GalR3). It is filed as functional.

Assay [4] deals with T2, Calpain-2 catalytic subunit (Sus scrofa, UniProt P43367).
T2 sequence (P43367 whole entry): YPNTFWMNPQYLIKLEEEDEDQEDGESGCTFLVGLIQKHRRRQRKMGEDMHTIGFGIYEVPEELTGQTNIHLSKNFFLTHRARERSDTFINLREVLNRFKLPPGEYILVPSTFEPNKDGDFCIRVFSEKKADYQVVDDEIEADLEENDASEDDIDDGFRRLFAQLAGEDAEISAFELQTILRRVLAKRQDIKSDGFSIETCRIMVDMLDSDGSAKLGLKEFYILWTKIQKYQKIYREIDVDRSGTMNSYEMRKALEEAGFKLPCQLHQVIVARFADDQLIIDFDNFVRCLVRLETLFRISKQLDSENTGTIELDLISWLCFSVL
Description: m-calpain protease blockers, concentration series – biochemical, fluorogenic peptide substrate, dose response (AID 1420). Format: functional.

The test system of assay [5] is BJ. Description: cells. Format: functional, cell-based. The note with it: Homo sapiens.
Assay [6] can be described thus: HIV-1 AD8 envelope cell-cell fusion blockers – cherry-pick, dose response (AID 652062).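 Also: luciferase signal from cell-cell fusion driven by HIV-1 clade B AD8 Env; potency is for inhibitors of fusion seen as a drop in luminescence.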 Format: functional, cell-based.
A short description of assay [7]: microbe, parasite or virus in culture. It is filed as functional. The conditions noted are these: Mycobacterium tuberculosis.
Assay [8] in a line: viability loss in HEK293 cells – cell-based, plate reader, cherry-picked samples, cytotoxicity control, dose response (AID 743446). Format: functional.
In assay [9] the target is T3, 1-phosphatidylinositol 4,5-bisphosphate phosphodiesterase gamma-1 (Homo sapiens, UniProt P19174).
T3 sequence (P19174 whole entry): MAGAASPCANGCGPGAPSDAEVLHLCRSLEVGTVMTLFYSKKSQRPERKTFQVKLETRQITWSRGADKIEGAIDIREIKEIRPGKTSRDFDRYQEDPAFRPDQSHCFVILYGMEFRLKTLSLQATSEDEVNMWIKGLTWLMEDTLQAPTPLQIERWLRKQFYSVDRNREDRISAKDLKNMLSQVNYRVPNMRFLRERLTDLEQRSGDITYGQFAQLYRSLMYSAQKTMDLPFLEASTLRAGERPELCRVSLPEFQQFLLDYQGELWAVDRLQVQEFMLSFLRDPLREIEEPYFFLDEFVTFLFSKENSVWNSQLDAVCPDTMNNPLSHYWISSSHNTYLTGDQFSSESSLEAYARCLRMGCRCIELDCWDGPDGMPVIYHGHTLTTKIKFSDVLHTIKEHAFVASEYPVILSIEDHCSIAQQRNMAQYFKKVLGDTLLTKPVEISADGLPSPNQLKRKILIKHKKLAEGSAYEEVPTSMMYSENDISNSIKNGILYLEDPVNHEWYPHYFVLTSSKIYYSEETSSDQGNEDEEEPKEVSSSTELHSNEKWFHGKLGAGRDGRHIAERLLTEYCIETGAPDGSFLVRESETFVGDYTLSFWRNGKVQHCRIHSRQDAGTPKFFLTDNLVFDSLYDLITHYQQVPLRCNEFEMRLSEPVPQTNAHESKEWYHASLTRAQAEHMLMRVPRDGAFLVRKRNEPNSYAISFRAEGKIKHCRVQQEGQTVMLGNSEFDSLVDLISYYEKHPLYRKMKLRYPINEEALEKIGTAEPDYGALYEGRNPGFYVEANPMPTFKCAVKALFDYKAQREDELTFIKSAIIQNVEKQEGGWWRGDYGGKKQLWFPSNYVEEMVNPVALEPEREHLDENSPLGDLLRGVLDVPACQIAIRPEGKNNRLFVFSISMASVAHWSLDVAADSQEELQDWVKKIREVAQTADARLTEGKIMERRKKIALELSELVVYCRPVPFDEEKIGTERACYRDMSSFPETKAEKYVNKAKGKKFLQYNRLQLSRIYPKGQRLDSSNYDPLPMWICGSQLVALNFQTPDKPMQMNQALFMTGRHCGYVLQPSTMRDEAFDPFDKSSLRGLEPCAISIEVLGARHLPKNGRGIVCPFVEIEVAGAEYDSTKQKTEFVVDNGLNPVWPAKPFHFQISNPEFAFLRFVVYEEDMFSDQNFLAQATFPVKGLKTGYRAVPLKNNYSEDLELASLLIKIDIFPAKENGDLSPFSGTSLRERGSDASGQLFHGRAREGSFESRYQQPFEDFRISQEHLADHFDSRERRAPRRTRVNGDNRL
Description: Counterscreen for inhibitors of phospholipase C isozymes (PLC-B3): Fluorescence-based biochemical high throughput dose response assay to identify inhibitors of phospholipase C isozymes (PLC-gamma1). Background: A counterscreen serves to expose hits that act by an unwanted route or on another target.

Assay [10] deals with ATP-dependent molecular chaperone HSP82 (Candida albicans (strain WO-1) (Yeast), UniProt C4YTQ8). Description: steroid-induced GRE reporter decrease in yeast – S. cerevisiae, luminescence, Hsp90 inhibitor project, dose response (AID 2400).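 Also: beta-galactosidase luminescence from glucocorticoid response element reporter as proxy for Hsp90 function; inhibitor potency where signal loss means Hsp90 inhibition.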 Format: functional, cell-based.
Chain of ATP-dependent molecular chaperone HSP82 (C4YTQ8 whole entry): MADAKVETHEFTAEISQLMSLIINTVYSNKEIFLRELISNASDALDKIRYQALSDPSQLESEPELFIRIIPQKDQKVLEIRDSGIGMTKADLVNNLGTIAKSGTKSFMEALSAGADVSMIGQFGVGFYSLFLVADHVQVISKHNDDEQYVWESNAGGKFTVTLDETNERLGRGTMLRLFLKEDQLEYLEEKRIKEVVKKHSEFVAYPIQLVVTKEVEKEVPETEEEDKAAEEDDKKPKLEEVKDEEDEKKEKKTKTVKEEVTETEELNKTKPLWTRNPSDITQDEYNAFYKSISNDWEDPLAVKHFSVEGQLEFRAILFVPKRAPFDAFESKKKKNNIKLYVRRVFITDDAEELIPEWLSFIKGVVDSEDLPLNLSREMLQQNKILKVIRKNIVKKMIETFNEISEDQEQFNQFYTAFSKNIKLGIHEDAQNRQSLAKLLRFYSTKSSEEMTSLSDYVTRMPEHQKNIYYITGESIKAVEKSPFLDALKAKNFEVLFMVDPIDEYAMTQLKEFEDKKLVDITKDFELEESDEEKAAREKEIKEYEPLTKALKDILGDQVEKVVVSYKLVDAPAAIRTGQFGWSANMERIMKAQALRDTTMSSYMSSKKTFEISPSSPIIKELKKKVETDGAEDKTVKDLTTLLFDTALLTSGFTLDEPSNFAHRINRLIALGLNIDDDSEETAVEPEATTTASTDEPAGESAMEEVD
Assay [11] concerns the target Small ubiquitin-related modifier 1 (Homo sapiens, UniProt P63165). Description: SUMO1 protein-protein binding blockers, potency – biochemical, FRET, dose response (AID 624383). Format: functional. The note with it: read-out: IC50_Mean.
In assay [12] the target is ORF 73 (Human herpesvirus 8, UniProt O40947). Description: KSHV LANA DNA-binding disruption – biochemical, fluorescence polarization, cherry-picked samples, dose response (AID 504725).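 Also: fluorescence polarization of a labeled DNA duplex reporting LANA DNA binding; potency is for inhibitors that block LANA binding to the DNA.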 Details: species or system Human gammaherpesvirus 8.
Chain of ORF 73 (O40947 whole entry): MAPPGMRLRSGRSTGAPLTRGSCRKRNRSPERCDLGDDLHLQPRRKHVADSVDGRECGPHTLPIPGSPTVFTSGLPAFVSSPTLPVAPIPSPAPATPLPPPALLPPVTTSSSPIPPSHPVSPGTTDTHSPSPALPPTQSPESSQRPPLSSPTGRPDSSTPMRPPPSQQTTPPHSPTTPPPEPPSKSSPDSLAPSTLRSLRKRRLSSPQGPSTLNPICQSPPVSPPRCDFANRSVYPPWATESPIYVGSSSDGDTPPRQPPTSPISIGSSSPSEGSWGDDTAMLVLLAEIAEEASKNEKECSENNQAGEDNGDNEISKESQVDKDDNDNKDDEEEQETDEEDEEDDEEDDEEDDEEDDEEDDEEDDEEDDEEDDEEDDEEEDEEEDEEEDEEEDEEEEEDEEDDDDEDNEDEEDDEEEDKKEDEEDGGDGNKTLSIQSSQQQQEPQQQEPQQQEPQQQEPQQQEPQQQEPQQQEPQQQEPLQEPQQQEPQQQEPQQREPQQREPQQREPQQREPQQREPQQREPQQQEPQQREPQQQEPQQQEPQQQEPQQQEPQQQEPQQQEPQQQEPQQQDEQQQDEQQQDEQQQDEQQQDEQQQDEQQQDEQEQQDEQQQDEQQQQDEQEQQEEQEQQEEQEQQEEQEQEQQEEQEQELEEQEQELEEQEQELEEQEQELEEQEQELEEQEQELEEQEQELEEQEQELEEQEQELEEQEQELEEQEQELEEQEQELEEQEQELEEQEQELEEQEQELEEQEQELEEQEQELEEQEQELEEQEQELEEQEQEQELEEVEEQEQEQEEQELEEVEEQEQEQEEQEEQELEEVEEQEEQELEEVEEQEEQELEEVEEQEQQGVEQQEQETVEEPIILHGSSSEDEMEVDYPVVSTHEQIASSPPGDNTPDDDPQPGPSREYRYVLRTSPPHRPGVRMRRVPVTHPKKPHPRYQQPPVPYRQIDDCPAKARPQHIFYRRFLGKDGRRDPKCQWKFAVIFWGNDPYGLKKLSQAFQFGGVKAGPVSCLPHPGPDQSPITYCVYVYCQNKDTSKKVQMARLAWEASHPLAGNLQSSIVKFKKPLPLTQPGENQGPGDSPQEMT
Assay [13] addresses Small ubiquitin-related modifier 2 (Homo sapiens, UniProt P61956). Description: disruption of SUMO2 interaction with SIM peptide – biochemical, fluorescence polarization, uHTS hits, selectivity assay for SUMO1 interaction inhibitor project, dose response (AID 624385). The note with it: read-out: IC50_Mean. It is filed as functional. In general terms: Polarisation of emitted light reports the rotation of a fluorescent probe.

Molecules are shown by their SMILES. Activity calls are given as the source filed them. A value given as a limit tells only on which side of the number the result lay.

The record followed here is ChEMBL document CHEMBL1201862, “PubChem BioAssay data set” (2004).

The term AC50 denotes the concentration giving half of the maximal activity seen. One may read the EC50 as the concentration at which the effect is half-maximal.

Chain of Small ubiquitin-related modifier 1 (P63165 whole entry): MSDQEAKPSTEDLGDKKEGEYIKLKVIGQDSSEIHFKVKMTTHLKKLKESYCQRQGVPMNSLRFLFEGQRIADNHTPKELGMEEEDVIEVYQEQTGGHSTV
Chain of Small ubiquitin-related modifier 2 (P61956 whole entry): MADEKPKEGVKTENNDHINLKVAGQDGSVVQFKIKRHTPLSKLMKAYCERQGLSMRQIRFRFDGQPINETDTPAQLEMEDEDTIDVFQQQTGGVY

Consider `CCCCCCCCCCn1c2c(c(=N)c3c1CCC3)CCC2`, for which the AC50 is 6.56 µM (active) in assay [1] and 0.726 µM (active) in [6]. Further, the EC50 was 15.8 µM (inactive) in assay [2] and 2.46 µM (inconclusive) in assay [5]. The IC50 in assay [3] is > 1.11 µM (active); in assay [4], 6.72 µM (active).

As to `Cn1nc(-c2ccccn2)nc2c(=O)n(C)c(=O)nc1-2`, in assay [7], the CC50 was > 40 µM (active). Also, in assay [8], the AC50 is 21.2 µM (active). For the same molecule, in assay [9], the IC50 is > 4.54 µM (active).

On to `CCC(=O)NC(c1ccc(OC)cc1)c1cc(Cl)c2cccnc2c1O` (stereo not drawn), for which the EC50 in [10] was > 160 µM (inactive).

In the case of `COc1ccc(NS(=O)(=O)c2ccc3c(c2)[C@H]2C=CC[C@H]2[C@@H](c2ccc(C(=O)O)cc2)N3)cc1`, the IC50 in assay [11] is 24.5 µM (inactive); in [13], 4.06 µM (active). Besides, the AC50 in [12] is 71.9 µM (active).
